Test results published in US9688668B2, “Long chain base sphingosine kinase inhibitors” (UNIVERSITY OF VIRGINIA PATENT FOUNDATION, priority 2012, dated 2017).
Read-outs that look alike come from different tables or passages of the source.

Experiments:
sphingosine kinases = conditions: background statement; read-out: typical KI value; cited from earlier work
recombinant SphK1 = recombinant SphK1 (Homo sapiens (Human), UniProt Q9NYA1); assay: SphK1 scintillation proximity kinase assay
[1] = patients, 1-yr trial; cited from earlier work
recombinant SphK2 = recombinant SphK2 (Mus musculus, UniProt Q9JIA7); assay: SphK2 scintillation proximity kinase assay; format: biochemical; conditions: Estimated Ki values at recombinant SphK2; read-out: SphK2 (estimated Ki range)
recombinant SphK2, sequence (Q9JIA7 whole entry, looked up): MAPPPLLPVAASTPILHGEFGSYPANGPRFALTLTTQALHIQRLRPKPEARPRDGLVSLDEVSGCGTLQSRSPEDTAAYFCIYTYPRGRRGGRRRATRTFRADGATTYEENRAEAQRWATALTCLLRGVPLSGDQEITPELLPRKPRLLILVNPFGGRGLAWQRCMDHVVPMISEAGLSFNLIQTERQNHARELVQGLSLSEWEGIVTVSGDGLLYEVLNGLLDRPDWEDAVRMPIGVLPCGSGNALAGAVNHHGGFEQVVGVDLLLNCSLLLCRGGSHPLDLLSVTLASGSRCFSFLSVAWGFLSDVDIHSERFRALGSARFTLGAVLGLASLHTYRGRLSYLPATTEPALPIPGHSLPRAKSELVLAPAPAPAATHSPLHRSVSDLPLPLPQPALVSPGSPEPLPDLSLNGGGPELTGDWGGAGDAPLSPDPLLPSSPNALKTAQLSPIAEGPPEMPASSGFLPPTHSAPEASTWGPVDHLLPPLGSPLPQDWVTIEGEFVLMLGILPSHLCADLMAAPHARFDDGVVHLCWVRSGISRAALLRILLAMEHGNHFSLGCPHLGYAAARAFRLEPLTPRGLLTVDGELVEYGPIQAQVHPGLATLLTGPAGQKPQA

[2] = read-out: SphK1 (estimated Ki range), Estimated Ki values at recombinant SphK1

recombinant SphK1, sequence (Q9NYA1 whole entry): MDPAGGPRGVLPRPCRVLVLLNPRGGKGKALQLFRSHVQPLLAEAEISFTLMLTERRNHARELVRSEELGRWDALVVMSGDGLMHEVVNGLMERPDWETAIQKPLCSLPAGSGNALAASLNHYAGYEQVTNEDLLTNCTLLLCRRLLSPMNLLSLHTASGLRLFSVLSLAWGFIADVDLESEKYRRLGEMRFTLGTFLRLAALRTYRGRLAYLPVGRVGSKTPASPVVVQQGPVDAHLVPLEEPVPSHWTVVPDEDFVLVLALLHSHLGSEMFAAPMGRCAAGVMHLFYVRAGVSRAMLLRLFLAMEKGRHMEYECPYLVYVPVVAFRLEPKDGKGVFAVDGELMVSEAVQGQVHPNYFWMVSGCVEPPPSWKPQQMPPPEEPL

Compound	Ki (recombinant SphK1; [2]) [µM]	also measured
CCCCCCCCCCCCCCC[C@H](O)[C@@H](N)CO (racemic) [DL-threo-dihydrosphingosine]	–	Ki (sphingosine kinases): < 10 µM
CCCCCCCCc1ccc(-c2noc([C@@H]3CCN(C(=N)N)C3)n2)cc1 [Compound 59, (R)-3-(3-(4-octylphenyl)-1,2,4-oxadiazol-5-yl)pyrrolidine-1-carboximidamide]	> 10	–
N=C(N)N1CC[C@H]1c1nc(-c2ccc(-c3ccccc3)cc2)no1 [Compound 60, (S)-2-(3-([1,1′-biphenyl]-4-yl)-1,2,4-oxadiazol-5-yl)azetidine-1-carboximidamide]	–	Ki (recombinant SphK1): > 10 µM
CCCCCCCCCCc1ccc(-c2noc([C@@H]3CCN3C(=N)N)n2)cc1 [Compound 63, (S)-2-(3-(4-decylphenyl)-1,2,4-oxadiazol-5-yl)azetidine-1-carboximidamide]	–	Ki (recombinant SphK1): 1 to 10 µM
CCCCCCCCc1ccc(-c2noc([C@@H]3CCN3C(=N)NO)n2)cc1 [Compound 65, (S)-N-hydroxy-2-(3-(4-octylphenyl)-1,2,4-oxadiazol-5-yl)azetidine-1-carboximidamide]	> 10	–
CCCCCCCCc1ccc(-c2noc(C3CN(C(=N)N)C3)n2)cc1 [Compound 66, 3-(3-(4-octylphenyl)-1,2,4-oxadiazol-5-yl)azetidine-1-carboximidamide]	–	Ki (recombinant SphK1): 1 to 10 µM
CCCCCCCCCCc1ccc(-c2noc(C3CN(C(=N)N)C3)n2)cc1 [Compound 67, 3-(3-(4-decylphenyl)-1,2,4-oxadiazol-5-yl)azetidine-1-carboximidamide]	> 10	–
CCCCCCCCCCCCc1noc(C[C@@H]2CCCN2C(=N)N)n1 [Compound 76, (S)-2-((3-dodecyl-1,2,4-oxadiazol-5-yl)methyl)pyrrolidine-1-carboximidamide]	> 10	–
CCCCCCCCc1ccc(CCC(N)(CO)CO)cc1 [fingolimod, 2-amino-2-[2-(4-octylphenyl)ethyl]propane 1,3-diol]	–	hypertension (blood pressure rise) [1]: 2-3 mmHg
(S)-2-((3-(3-nonylphenyl)-1,2,4- oxadiazol-5-yl)methyl)pyrrolidine-1- carboximidamide [Compound 75]	> 10	Ki (recombinant SphK2): > 10 µM

Continued, in another order:

Ki (recombinant SphK1; [2]) [µM]	Compound	also measured
> 10	CCCCCCc1ccc(-c2noc([C@@H]3CCN3C(=N)N)n2)cc1 [Compound 61, (S)-2-(3-(4-hexylphenyl)-1,2,4-oxadiazol-5-yl)azetidine-1-carboximidamide]	–
> 10	CCCCCCCCc1cccc(-c2noc(C[C@@H]3CCCN3C(=N)N)n2)c1 [Compound 74, (S)-2-((3-(3-octylphenyl)-1,2,4-oxadiazol-5-yl)methyl)pyrrolidine-1-carboximidamide]	–
> 10	N=C(N)N1CCC[C@H]1Cc1nc(-c2ccc(CS(=O)(=O)c3ccccc3)cc2)no1 [Compound 77, (S)-2-((3-(4-((phenylsulfonyl)methyl)phenyl)-1,2,4-oxadiazol-5-yl)methyl)pyrrolidine-1-carboximidamide]	–
